BindingDB's records for doi:10.1124/jpet.104.077339 (Section of Pharmacology, 2005)
Where “and” joins values, the source holds several entries; their conditions need not be identical. Equal entries are not always repeated.

Columns and labels:
[1] = target: Delta-type opioid receptor (Homo sapiens, UniProt P41143)
Nociceptin receptor [2] = target: Nociceptin receptor (Homo sapiens, UniProt P41146)
[3] = target: Kappa-type opioid receptor (Homo sapiens, UniProt P41145)
Mu-type opioid receptor = Mu-type opioid receptor (Homo sapiens, UniProt P35372)
Nociceptin receptor [4] = target: Nociceptin receptor (Mus musculus, UniProt P35377)
Nociceptin receptor [5] = target: Nociceptin receptor (Rattus norvegicus, UniProt P35370)
[6] = target: Nociceptin receptor (Cavia porcellus)

Nociceptin receptor (Homo sapiens, UniProt P41146), sequence (P41146 whole entry): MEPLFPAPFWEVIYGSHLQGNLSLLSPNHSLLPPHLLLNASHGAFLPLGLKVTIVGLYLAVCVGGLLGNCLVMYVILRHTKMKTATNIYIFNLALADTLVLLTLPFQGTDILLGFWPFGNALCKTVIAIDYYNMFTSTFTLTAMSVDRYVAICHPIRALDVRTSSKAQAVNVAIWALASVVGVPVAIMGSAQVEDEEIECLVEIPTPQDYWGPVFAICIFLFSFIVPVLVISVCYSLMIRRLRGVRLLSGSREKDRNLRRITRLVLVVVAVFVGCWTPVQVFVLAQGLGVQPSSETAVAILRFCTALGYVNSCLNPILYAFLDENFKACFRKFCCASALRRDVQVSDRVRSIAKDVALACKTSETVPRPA
Nociceptin receptor (Mus musculus, UniProt P35377), sequence (P35377 whole entry): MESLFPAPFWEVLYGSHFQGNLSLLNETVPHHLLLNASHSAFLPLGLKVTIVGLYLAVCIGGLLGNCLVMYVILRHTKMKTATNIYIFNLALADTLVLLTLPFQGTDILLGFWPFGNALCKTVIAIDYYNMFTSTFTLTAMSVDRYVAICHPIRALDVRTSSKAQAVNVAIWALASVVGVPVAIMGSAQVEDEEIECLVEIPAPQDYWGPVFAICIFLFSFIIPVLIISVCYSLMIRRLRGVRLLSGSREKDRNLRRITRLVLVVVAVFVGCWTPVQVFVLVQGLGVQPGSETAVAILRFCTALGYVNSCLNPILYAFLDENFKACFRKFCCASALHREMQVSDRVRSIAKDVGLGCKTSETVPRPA
Nociceptin receptor (Rattus norvegicus, UniProt P35370), sequence (P35370 whole entry): as the sequence (P35377 whole entry) above, with F9Y, A335S counted along it
Delta-type opioid receptor, sequence (P41143 whole entry): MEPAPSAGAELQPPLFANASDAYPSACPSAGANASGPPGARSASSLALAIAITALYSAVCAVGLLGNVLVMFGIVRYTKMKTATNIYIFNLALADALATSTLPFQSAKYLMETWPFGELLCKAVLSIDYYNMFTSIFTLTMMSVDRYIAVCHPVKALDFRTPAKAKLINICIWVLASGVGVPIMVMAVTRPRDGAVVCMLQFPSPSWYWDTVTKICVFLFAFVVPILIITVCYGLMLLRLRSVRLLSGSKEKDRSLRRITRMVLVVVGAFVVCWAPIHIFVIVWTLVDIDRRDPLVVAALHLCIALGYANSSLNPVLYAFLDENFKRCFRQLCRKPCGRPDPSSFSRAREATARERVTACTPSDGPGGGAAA
Kappa-type opioid receptor, sequence (P41145 whole entry): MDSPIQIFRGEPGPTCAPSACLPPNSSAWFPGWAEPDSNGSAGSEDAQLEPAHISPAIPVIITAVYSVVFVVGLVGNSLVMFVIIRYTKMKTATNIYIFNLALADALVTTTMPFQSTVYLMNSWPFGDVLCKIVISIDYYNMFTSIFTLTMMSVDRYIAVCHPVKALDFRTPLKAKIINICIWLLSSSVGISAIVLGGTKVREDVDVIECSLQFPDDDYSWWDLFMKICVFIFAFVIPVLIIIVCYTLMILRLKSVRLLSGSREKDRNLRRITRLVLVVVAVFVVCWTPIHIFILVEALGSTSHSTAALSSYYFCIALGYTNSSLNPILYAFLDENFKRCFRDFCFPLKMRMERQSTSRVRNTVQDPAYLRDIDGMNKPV
Mu-type opioid receptor, sequence (P35372 whole entry): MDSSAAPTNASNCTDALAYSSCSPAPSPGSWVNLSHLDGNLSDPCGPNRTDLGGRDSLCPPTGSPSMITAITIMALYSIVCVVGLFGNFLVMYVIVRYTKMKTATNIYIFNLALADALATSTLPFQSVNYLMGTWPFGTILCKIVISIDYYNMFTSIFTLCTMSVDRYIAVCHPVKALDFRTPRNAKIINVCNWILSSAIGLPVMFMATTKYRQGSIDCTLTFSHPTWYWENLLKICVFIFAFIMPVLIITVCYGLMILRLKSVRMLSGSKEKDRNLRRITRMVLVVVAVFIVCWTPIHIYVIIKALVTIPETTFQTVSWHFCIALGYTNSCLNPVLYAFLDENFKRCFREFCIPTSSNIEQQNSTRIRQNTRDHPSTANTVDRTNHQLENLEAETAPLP

C[C@H](NC(=O)CNC(=O)[C@@H](NC(=O)[C@H](Cc1ccc(F)cc1)NC(=O)CNC(=O)CNC(=O)[C@@H](N)Cc1ccccc1)[C@@H](C)O)C(=O)N[C@@H](CCCNC(=N)N)C(=O)N[C@@H](CCCCN)C(=O)N[C@@H](CO)C(=O)N[C@@H](C)C(=O)N[C@@H](CCCNC(=N)N)C(=O)N[C@@H](CCCCN)C(=O)N[C@@H](CCCNC(=N)N)C(=O)N[C@@H](CCCCN)C(=O)N[C@@H](CC(N)=O)C(=O)N[C@@H](CCC(N)=O)C(N)=O [OFQ/N UFP-102]
Ki [1]: 380 nM | Ki (Nociceptin receptor [2]): 0.076 nM and 0.068 nM and 0.021 nM | Ki [3]: 4.79 nM | Ki (Mu-type opioid receptor): 70.8 nM | Ki (Nociceptin receptor [4]): 0.38 nM and 0.65 nM and 0.36 nM | Ki (Nociceptin receptor [5]): 2.69 nM | EC50 [6]: 0.58 nM
